Measured values: patent publication US20210008161A1, “METHODS AND COMPOSITIONS FOR IMPROVED HOMOLOGY DIRECTED REPAIR” (CRISPR THERAPEUTICS AG, priority 2019, published 2021)

Key:
Format in all cases: cell-based, human
HEK293 T cells [1] = assay: HDR gene-editing at GSD1a locus with ssODN homology donors; conditions: for HDR efficiency: 1.25 μM SCR7 or 10 μM RS-1, FIG. 3
Method: 2×10^5 cells were edited with 1 μM Cas9 and 1.5 μM gRNA. The cells were transfected with two different ssODNs homology donors: 93-50 (SEQ ID NO: 39) or 25-100 (SEQ ID NO: 40). These two ssODN donors contain homology arms spanning both sides of the double-stranded break induced by the Cas9-guide and facilitate correction of a point mutation in the G6PC gene sequence by HDR. Cells were edited with 100 μM ssODN. The cells were treated with 2.5 μM Nu7441, 1.25 μM SCR7, or 10 μM RS-1 and the effect on HDR efficiency was evaluated.

HEK293 T cells [2] = assay: BFP to GFP fluorescent reporter assay of HDR efficiency (AAVS1 locus)
Method: An in vitro assay was conducted to determine the ability of various inhibitors and enhancers to improve the efficiency of HDR repair in HEK293 T cells. Specifically, a fluorescent reporter-based screening approach was developed to identify molecules that enhance gene-editing by HDR. A reporter system was generated in HEK293 T cells comprising a genomic AAVS1 locus that encoded either a blue fluorescent protein (BFP) or a green fluorescent protein (GFP) within the AAVS1 locus. A gene encoding BFP can be converted to a gene encoding GFP by substitution of cytosine at position 199 to uridine (e.g., a C to U transition at position 199). By introducing a DSB within the BFP gene using a CRISPR/Cas9 gene-editing system, a homology donor DNA encoding the nucleotide substitution can be used to edit the BFP gene to a GFP gene by HDR repair. Thus, a gene edit that induces a C to U transition at position 199 results in a change in cellular fluorescence. A change in the fluorescence of the cell measured by flow cytometry can be used to quantify efficiency of HDR repair. Additionally, the reverse gene edit can be performed for an AAVS1 locus encoding a GFP gene, wherein a GFP can be converted to BFP by substitution of uridine at position 199 to cytosine.
To create the reporter system, an AAV-based homology donor DNA encoding either BFP or GFP was created. The AAV-BFP or AAV-GFP donor was flanked by homology arms that were 1000 base pairs in length and expression of BFP or GFP was driven by the MND promoter (e.g., a synthetic promoter that contains the U3 region of a modified Moloney murine leukemia virus long term terminal repeat with myeloproliferative sarcoma virus enhancer and deleted negative control region, SEQ ID NO: 58). The viral DNA was packaged into capsids of adeno-associated virus serotype 6 (AAV6) vector. Either the BFP or GFP donor was introduced using the AAV6 vector into the AAVS1 locus in HEK293 T cells by homologous recombination using CRISPR-Cas9 as follows: purified Cas9 protein was complexed with two different single gRNAs (sgRNAs) targeting the AAVS1 locus at SEQ ID NO: 3 (spacer sequence identified by SEQ ID NO: 4; gRNA obtained from Maxcyte) or SEQ ID NO: 5 (spacer sequence identified by SEQ ID NO: 6; gRNA obtained from Thermo Fisher). Cas9 protein used in the Exemplary section provided herein refers to Cas9 polypeptide derived from S. pyogenes (SpCas9), unless indicated otherwise.
The Cas9-sgRNA complex was electroporated into the HEK293 T cells using the Lonza Nucleofector program CM-130. Approximately, 2 hours after electroporation, the cells were infected with various viral doses of AAV6 encoding a BFP (SEQ ID NO: 44) or GFP homology donor (SEQ ID NO: 47). One week later, cells were analyzed by flow cytometry to verify integration and expression of BFP or GFP in the AAVS1 locus. HEK293 T cells expressing BFP or GFP were sorted into single cells in 96-well plates. After ˜2 weeks of growth, DNA extracted from individual cells was analyzed for precise integration of the respective BFP or GFP gene into the AAVS1 locus by long-range PCR. This PCR analysis allowed for determination of whether the BFP/GFP gene was integrated in one or both alleles of the AAVS1 locus.
To introduce a gene edit that converts BFP to GFP, cells were electroporated with ribonucleoprotein (RNP) comprised of Cas9 and sgRNA that targets the BFP gene encoded in the AAVS1 locus. The sgRNA targeted a sequence in the BFP gene identified by SEQ ID NO: 7 (sgRNA spacer sequence identified by SEQ ID NO: 8). The sgRNA were prepared using a standard sgRNA cassette specific to SpCas9, as indicated by SEQ ID NO: 2 (wherein a, c, g, u represent 2′ O-methyl phosphorothioate nucleotides; s represents phosphorothioate nucleotides; and A, C, G, U, N represent canonical RNA nucleotides). The gRNAs used in the Exemplary section provided herein were sgRNAs prepared with the SpCas9 sgRNA cassette unless indicated otherwise. […]

HEK293 T cells [3] = assay: Indel formation at GFP gene in AAVS1 locus by TIDE analysis; conditions: regardless of ssODN or gRNA, compared to DMSO control, FIG. 2C-2D
Method: The effect of DNA PK inhibition by Nu7441 correction of a DSB by the NHEJ pathway (e.g., introduce an indel at the DSB site) or HDR pathway (e.g., introduce a gene mutation encoded by a homology donor at the DSB site) was assessed using the reporter system described in Example 1. In this case gene-editing was evaluated in HEK293 T cells expressing GFP in the AAVS1 locus. To introduce a gene edit that converts GFP to BFP, cells were electroporated with ribonucleoprotein (RNP) comprised of Cas9 and gRNA1 (GFP target sequence identified by SEQ ID NO: 9; sgRNA spacer sequence identified by SEQ ID NO: 10) or gRNA2 (GFP target sequence identified by SEQ ID NO: 11; sgRNA spacer identified by SEQ ID NO: 12) that targets the GFP gene encoded in the AAVS1 locus. The cells were also transfected with ssODNs that encoded the gene correction necessary to convert GFP to BFP and homology arms complimentary to the sequence upstream and downstream of the target gene cut site. The efficiency of HDR repair was determined by measuring the level of cell BFP fluorescence. The efficiency of cutting (indel information) was monitored by TIDE analysis.
Shown in FIGS. 2C-2D is a measure of indel formation performed by TIDE analysis for the same edits that are described for FIGS. 2A-2B. […] Thus, the DNA PK inhibitor Nu7441 achieves reduced repair of a DSB by the NHEJ pathway when a homology donor is provided.

[4] = 1.25 μM SCR7 or 10 μM RS-1, ssODN1-4, relative to DMSO alone, FIG. 1A

Molecule	fold increase in HDR efficiency (HEK293 T cells [1]; 2.5 μM Nu7441, over DMSO alone, FIG. 3)	fold higher HDR efficiency (HEK293 T cells [2]; 2.5 μM Nu7441, each of ssODN1-4, FIG. 1A)	fold higher HDR efficiency, high vs low concentration (HEK293 T cells [2]; 2.5 μM vs 0.6 μM, FIG. 1B, 1C)	HDR efficiency at higher concentrations (HEK293 T cells [2]; concentrations higher than 2.5 μM)	improvement in HDR efficiency, dose dependence (HEK293 T cells [2]; varied doses, FIG. 1B)	indel formation at the DSB site (HEK293 T cells [3])	HDR efficiency (HEK293 T cells [1])	HDR efficiency (HEK293 T cells [2]; [4])	HDR efficiency (HEK293 T cells [2]; different doses of mRNA encoding i53, ssODN Hn-91-61 and Ht-39-88, FIG. 1D)
O=c1cc(N2CCOCC2)oc2c(-c3cccc4c3sc3ccccc34)cccc12 [Nu7441]	approximately 1.7 fold	approximately 3 fold	approximately 1.5 fold	no further improvement	dose-dependent	decreased	–	–	–
O=C(Nc1ccc(Br)cc1)c1ccc(Br)c(S(=O)(=O)NCc2ccccc2)c1 [RS-1]	–	–	–	–	–	reduction	no effect	no improvement	–
O=c1[nH]c(=S)[nH]c(N=Cc2ccccc2)c1N=Cc1ccccc1 [SCR7]	–	–	–	–	–	reduction	no effect	no improvement	–
i53: polypeptide inhibitor of 53BP1 (SEQ ID NO: 70), introduced as an mRNA-encoded protein (ORF SEQ ID NO: 69)	–	–	–	–	–	–	–	–	increased
